The assay addresses T1, recombinant human MetAP2 (Homo sapiens, UniProt P50579).
T1 construct: Flag; made in house; host or cells: Sf9 insect cells
Description: Inhibition of recombinant human MetAP2 activity (Amplex red fluorescence assay). Conditions: manganese Flag-MetAP2, 0.75 mM Methionine-Alanine-Serine substrate, 30 minutes at 25° C., pH 7.5, 1% DMSO. The format is biochemical. The protocol: Compounds are tested for their capacity to inhibit recombinant human MetAP2 activity using the following assay.
Human recombinant Flag-MetAP2 expressed in Sf9 cells followed by affinity purification and EDTA treatment to remove endogenous active site cation is dialysed against MnCl2 to produce the manganese enzyme used in the assay. The assay is carried out for 30 minutes at 25° C. in 50 mM HEPES buffer containing 100 mM NaCl, pH 7.5 the presence of 0.75 mM Methionine-Alanine-Serine (MAS) substrate and 50 μg/ml amino acid oxidase using a dilution of purified MetAP2 giving approximately 50,000 RFU control activity. Cleavage of the substrate by MetAP2 and oxidation of free methionine by amino acid oxidase is detected and quantified using fluorescence generated by Amplex red (10-acetyl-3,7-dihydroxyphenoxazine) in combination with horseradish peroxidase which detects H2O2 released during the oxidation step. The fluorescent signal is detected using a multiwell fluorimeter. Compounds are diluted in DMSO prior to addition to assay buffer, the final DMSO concentration in the assay being 1%.
The IC50 is defined as the concentration at which a given compound achieves 50% inhibition of control. IC50 values are calculated using the XLfit software package (version 2.0.5).

T1 sequence (P50579 whole entry): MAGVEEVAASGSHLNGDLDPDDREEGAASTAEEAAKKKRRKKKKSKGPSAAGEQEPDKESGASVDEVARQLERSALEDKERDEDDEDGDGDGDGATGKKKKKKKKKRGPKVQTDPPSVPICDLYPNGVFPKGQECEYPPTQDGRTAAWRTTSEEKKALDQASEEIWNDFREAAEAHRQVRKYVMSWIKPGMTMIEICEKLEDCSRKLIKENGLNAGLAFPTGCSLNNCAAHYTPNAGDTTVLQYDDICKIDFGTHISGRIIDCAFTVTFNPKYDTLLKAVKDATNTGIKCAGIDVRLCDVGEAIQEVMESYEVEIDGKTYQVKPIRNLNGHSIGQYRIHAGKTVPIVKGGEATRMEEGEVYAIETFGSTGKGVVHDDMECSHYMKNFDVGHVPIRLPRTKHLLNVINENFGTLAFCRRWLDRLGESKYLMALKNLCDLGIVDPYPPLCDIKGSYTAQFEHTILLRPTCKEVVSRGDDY

Consider `COc1cccc(S(=O)(=O)Cc2ccc(-c3ccoc3)c(OC)c2C(=O)O)c1` [3-(Furan-3-yl)-6-(3-methoxybenzenesulphonylmethyl)-2-methoxybenzoic acid], for which the IC50 is over 2000 nM.

For the molecule `COc1c(-c2ccon2)ccc(CS(=O)(=O)c2ccccc2)c1C(=O)O` [6-(Benzenesulphonylmethyl)-3-(isoxazol-3-yl)-2-methoxybenzoic acid], the half-maximal inhibitory concentration (IC50) is over 2000 nM. As to `O=C(O)c1c(CS(=O)(=O)c2ccccc2)ccc(-c2ccoc2)c1O` [6-(benzenesulphonylmethyl)-3-(furan-3-yl)-2-hydroxybenzoic acid], the IC50 is over 2000 nM.

Regarding `COc1c(-c2ccoc2)ccc(CS(=O)(=O)c2cccc(F)c2)c1C(=O)O` [6-(3-Fluorobenzenesulphonylmethyl)-3-(furan-3-yl)-2-methoxybenzoic acid], the IC50 was under 200 nM. Take `CCc1ccc(CS(=O)(=O)c2ccc(Cl)cc2)c(C(=O)O)c1OC` [6-(4-Chlorobenzenesulphonylmethyl)-3-ethyl-2-methoxy-benzoic acid]: the IC50 was over 2000 nM.

With `COc1c(-c2ccoc2)ccc(CS(=O)(=O)c2cccc(Cl)c2)c1C(=O)O` [6-(3-Chlorobenzenesulphonylmethyl)-3-(furan-3-yl)-2-methoxybenzoic acid], the IC50 is under 200 nM. In the case of `COc1c(-c2ccoc2)ccc(CS(=O)(=O)N2CCC(O)C2)c1C(=O)O` (centres unmarked) [3-(Furan-3-yl)-6-(3-hydroxypyrrolidine-1-ylsulphonylmethyl)-2-methoxybenzoic acid], the IC50 lay in the range of 200 to 2000 nM. With `CCN(CC)CC1CCN1c1ccccc1S(=O)(=O)Cc1ccc(-c2ccoc2)c(OC)c1C(=O)O` (centres unmarked) [6-[2-(2-Diethylaminomethylazetidin-1-yl)-benzenesulphonylmethyl]-3-(furan-3-yl)-2-methoxybenzoic acid] the figure was over 2000 nM.

For the molecule `CCc1ccc(CS(=O)(=O)c2ccccc2C)c(C(=O)O)c1OC` [3-Ethyl-2-methoxy-6-(2-methylbenzenesulphonylmethyl)benzoic acid], the 50% inhibitory concentration (IC50) lay within 200 to 2000 nM. Consider `COc1c(C2CC2)ccc(CS(=O)(=O)c2ccccc2)c1C(=O)O` [6-(Benzenesulphonylmethyl)-3-cyclopropyl-2-methoxy-benzoic acid], for which the IC50 lay within 200 to 2000 nM.

Take `CCN(CC)C/C=C\c1ccccc1S(=O)(=O)Cc1ccc(-c2ccoc2)c(OC)c1C(=O)O` [(Z)-6-((2-(3-(Diethylamino)prop-1-enyl)benzenesulfonyl)methyl)-3-(furan-3-yl)-2-methoxybenzoic acid]: the IC50 was under 200 nM.

Take `COc1c(-c2ccoc2)ccc(CS(=O)(=O)C2CCCCC2)c1C(=O)O` [6-(Cyclohexanesulphonylmethyl)-3-(furan-3-yl)-2-methoxybenzoic acid]: the half-maximal inhibitory concentration (IC50) lay in the range of 200 to 2000 nM. On to `COc1c(-c2nccs2)ccc(CS(=O)(=O)c2ccccc2)c1C(=O)O` [6-(Benzenesulphonylmethyl)-2-methoxy-3-(thiazol-2-yl)benzoic acid], for which the IC50 was over 2000 nM.

As for `COc1c(-c2cncs2)ccc(CS(=O)(=O)c2ccccc2)c1C(=O)O` [6-(Benzenesulphonylmethyl)-2-methoxy-3-(thiazol-5-yl)benzoic acid], the IC50 fell in the range of 200 to 2000 nM.

One may read the IC50 as the point on the concentration scale where inhibition reaches its midpoint.

For the origin of these results see patent publication US9067905B2, “Sulphone compounds and methods of making and using same” (Zafgen, Inc., priority 2009, dated 2015).
